Values joined by “and” are separate entries in the source; they are usually repeats but may differ in a detail not shown here. Identical values can stand only once.
Experiments:
CRF1/CRF2 receptor = CRF1/CRF2 receptor antagonist; stated without test; cited from earlier work
young CRF-OE mice = details: mouse, in vivo
Description: Each subcutaneous injection is given in a single puncture located along or about the midline of the back. Age-matched CRF-OE mice similarly injected with 0.1 ml vehicle alone are used as negative controls. Astressin B fragments are as described in Example 8. Alternatively, topical astressin B can be applied to the mouse's back, for example 0.05 mg, 0.5 mg, 5 mg, 50 mg, or 500 mg of an astressin B fragment once daily for at least five consecutive days
Hair growth (or hair loss) is assessed using the hair growth scale described in Example 1. The general conditions of treated and control mice, such as weight, back skin thickness, hair luster, skin wounds and indurations, are noted.

CRF-OE mice [1] = assay: Repeat sc experiment in female CRF-OE mice (4.5 months old): skin pigment and hair growth scores; type: in vivo; parameters: key to Skin pigmentation (Pg) score: 0 = bright pink skin, 10 = black pigmentation of entire region; key to Ventral Abdomen Hair Growth Score (VAb) / Back Hair Growth Score (BK): 0 = no change in hair, 10 = full hair growth in test area; details: sc 5 μg/mouse x 5 days
Description: Hair growth in CRF-OE mice was assessed using the hair growth scale developed by Vegesna et al. […], 2002) modified to account for phenotypic differences between CRF-OE mice. Scores were made visually as well as using photographs of each mouse at a weekly interval. The degree of alopecia varied between individual CRF-OE mice; thus, the percent difference between the amount of hair present in the test area (described below) before and 4 weeks after treatment was converted to a score of 0-10. A zero score corresponded to a no change in the amount of hair in the test area and a score of 10 corresponded to full hair growth in the entire test area. The scale for monitoring hair growth in CRF-OE mice is more particularly described in Table 2.
Pigmentation of the skin (also referred to as skin color) in the test region was also measured because, in C57BL/6 mice, the skin darkens at the onset of hair growth. A pigmentation score from 0-10 was given to each mouse with a score of 0 corresponding to bright pink skin color/pigment in the entire test region, a score of 1-5 corresponding to increasing intensity of a pale greyish color/pigment of skin in the test region, a score of 6-9 corresponding to increasing but non-confluent darker color/pigment of skin in the test region, and a score of 10 corresponding to black pigmentation of the entire test region. Pigmentation was measured one week after the fifth and final injection because changes (if any) in pigmentation are substantially complete by that time.
Experiments were repeated in female CRF-OE mice (4.5 months old) to confirm the results. Mice were injected with astressin B (5 μg/mouse, 10 mice) or saline (5 mice) for 5 days. Skin pigment and hair growth scores were given as described before. Five astressin B-treated and five saline injected mice were sacrificed for skin tissue collection at seven days post last injection. Additional mice (5) injected with astressin B were sacrificed on day 14. Five littermate wild type (WT) mice were used as normal control. Adrenal gland and abdominal fat weights were also checked at sacrifice of each mouse.
CRF-OE mice (approximately 4 months old) with fully developed alopecia on their backs were injected intraperitoneally (ip) with equal volumes (0.1 ml) of either saline or astressin B (5 μg/mouse/day) for 5 consecutive days. Skin pigment score and hair growth (on the back) score were determined as described in Example 1. In addition, because adult CRF-OE mice also lose ventral abdomen hair, a ventral abdomen (Vab) hair growth score was determined. The area considered for scoring ventral abdomen hair growth was delineated, in the front (anteriorly), by a horizontal line across the tip of the xifoid process (distal sternum), in the rear (posteriorly), by a horizontal line joining the back of the thighs along the anus, and, laterally, by a straight line along the lateral side of the ventral abdomen on left and right sides.

CRF-OE mice [2] = assay: Cyclic CRF antagonists, hair growth in adult alopecic CRF-OE mice (Example 10); type: in vivo; details: at least four weeks after the final administration
Text: Although mice are particularly described, one skilled in the art will appreciate that other laboratory animals and human subjects can be used, and doses adjusted accordingly (for example based on the weight of the subject, or the area to which the peptide is to be applied). Similarly although particular modes of administration are described, one will appreciate that variations can be made (such as those disclosed herein and those known in the art).
Any method of administration can be used, including injection, transdermal/topical delivery, or combinations thereof.
In one example, therapeutic peptides are administered via injection. For example, mice can be injected subcutaneously or intraperitoneally with at least 0.05 μg, at least 0.5 μg, at least 5 μg, at least 50 μg, or at least 500 μg of one or more therapeutic peptides (for example 0.5-50 μg peptide, 0.5-10 μg peptide, or 5 μg peptide). The peptide can be administered in 0.1 ml sterile saline (or 5% mannitol) once per day for at least 5 consecutive days, such as at least 10 days, at least 30 days, or at least 60 days. […] As a negative control, CRF-OE mice receive saline alone (such as 10-100 μl) or 5 μg astressin 2B in 0.1 ml saline.
In another example, therapeutic peptides are administered topically or transdermally. […]

[3] = Before (Week 0), individual mice and Ave., listed as AB
[4] = Before (Week 0), individual mice and Ave., listed as AB, mean
[5] = Week 1, individual mice and Ave., listed as AB
[6] = Week 1, individual mice and Ave., listed as AB, mean

(cyclo 30-33)[DPhe12, Nle21,38, Cml27,40, Glu30, Lys33]Ac-h/rCRF9-41 [Astressin B]
Duration of action (long acting) (CRF1/CRF2 receptor): ≥ 24 h
General conditions of treated mice (young CRF-OE mice): well and substantially the same
Skin pigmentation (Pg) score (CRF-OE mice [1]; Before (Week 0), individual mice and Ave.): 0
Back Hair Growth Score (BK) (CRF-OE mice [1]; [3]): 0.5 (4×) and 1 (2×) and 0 (4×)
Ventral Abdomen Hair Growth Score (VAb) (CRF-OE mice [1]; [3]): 0.5 (4×) and 0.25 (6×)
Back Hair Growth Score (BK) (CRF-OE mice [1]; [4]): 0.7 and 0.1
Ventral Abdomen Hair Growth Score (VAb) (CRF-OE mice [1]; [4]): 0.35
Skin pigmentation (Pg) score (CRF-OE mice [1]; Before (Week 0), individual mice and Ave., mean): 0
Back Hair Growth Score (BK) (CRF-OE mice [1]; [5]): 10 (4×) and 9.5 (3×) and 7 and 9 and 8.5
Skin pigmentation (Pg) score (CRF-OE mice [1]; [5]): 10 (4×) and 9.5 (3×) and 7 and 9 and 8.5
Ventral Abdomen Hair Growth Score (VAb) (CRF-OE mice [1]; [5]): 0.5 (2×) and 0.25 (7×) and 0.75
Back Hair Growth Score (BK) (CRF-OE mice [1]; [6]): 9.5 and 9.1
Skin pigmentation (Pg) score (CRF-OE mice [1]; [6]): 9.5 and 9.1
Ventral Abdomen Hair Growth Score (VAb) (CRF-OE mice [1]; [6]): 0.35
Ventral Abdomen Hair Growth Score (VAb) (CRF-OE mice [1]; Week 2, 14 days follow-up group, individual mice and Ave.): 0.5
Back Hair Growth Score (BK) (CRF-OE mice [1]; Week 2, 14 days follow-up group, individual mice and Ave., listed as AB): 5 and 9.5 and 8 (2×) and 10
Back Hair Growth Score (BK) (CRF-OE mice [1]; Week 2, 14 days follow-up group, individual mice and Ave., listed as AB, mean): 8.1
Ventral Abdomen Hair Growth Score (VAb) (CRF-OE mice [1]; Week 2, 14 days follow-up group, individual mice and Ave., mean): 0.5

cyclo(31-34)[DPhe11, His12, CαMeLeu13,39, Nle17, Glu31, Lys34]Ac-Sau(8-40) [Astressin 2B, reference compound]
Hair in the test area (CRF-OE mice [2]): remain bald in the test area

Source: US10166271B2, “Methods for promoting hair growth” (THE REGENTS OF THE UNIVERSITY OF CALIFORNIA, priority 2006, dated 2019)
